Measurements published in patent publication US7427601B2, “Method for treating tremor” (Schwarz Pharma AG, priority 2004, dated 2008).

System: harmaline-induced tremors
Assay: Harmaline-induced tremors in rats
Format: in vivo, Male Sprague-Dawley rats
Conditions: for Intensity of tremors after harmaline administration (score), Mean ± S.E.M.: scale 0 to 4
Procedure: Male Sprague-Dawley rats (Charles River Laboratories, France) were used. During the acclimatization period, animals were housed 2 per cage, in Makrolon type III cages, in the animal room (temperature: 20±2° C., humidity: minimum 45%, air changes: >12 per hour, light/dark cycle of 12 h/12 h [on at 7:00 A.M.]). Animals were allowed a minimum of 5 days period before experiment for acclimatization.
Harmaline HCl (Sigma) was diluted in saline and injected at 20 mg/kg, i.p. The reference compound, propanolol was injected i.p. at 20 mg/kg, 30 min before harmaline administration. SPM 927 was given i.p. at 3, 10 and 30 mg/kg, 30 min before harmaline administration.
The following parameters were assessed by an observer blind to the treatment of the animals. • Intensity: from 0 to 4 (0: no tremor, 1: mild tremor, 2: moderate intermittent tremor, 3: moderate persistent tremor, 4: pronounced severe tremor). Intensity will be scored every 30 min and for a total period of 120 min after harmaline administration. • Latency of onset • Total duration of tremor (max observation time: 120 min) • % rat displaying tremor

`CC(C)NCC(O)COc1cccc2ccccc12` (stereo not shown) [Propranolol, reference compound] was tested, and the “Intensity of tremors after harmaline administration (score), Mean ± S.E.M.” value (from here on “Intensity of tremors … Mean ± S.E.M.”) (20 mg/kg i.p. 30 min before harmaline (20 mg/kg i.p.), +30 min) was 1.6 ± 0.2 score, the “Intensity of tremors … Mean ± S.E.M.” value (20 mg/kg i.p. 30 min before harmaline (20 mg/kg i.p.), +60 min) was 2.3 ± 0.3 score and the “Intensity of tremors … Mean ± S.E.M.” value (20 mg/kg i.p. 30 min before harmaline (20 mg/kg i.p.), +90 min) was 1.6 ± 0.3 score. The “Intensity of tremors … Mean ± S.E.M.” value (20 mg/kg i.p. 30 min before harmaline (20 mg/kg i.p.), +120 min) was 1.4 ± 0.3 score and the “intensity of tremors (in words)” value (20 mg/kg, each time-point of observation) was “reduced the intensity of tremors in a statistically significant manner”.
In the case of `COC[C@@H](NC(C)=O)C(=O)NCc1ccccc1` [SPM 927, (R)-2-acetamide-N-benzyl-3-methoxypropionamide], the “Intensity of tremors … Mean ± S.E.M.” value (3 mg/kg i.p. 30 min before harmaline (20 mg/kg i.p.), +30 min) is reported as 2.0 ± 0.4 score, the “Intensity of tremors … Mean ± S.E.M.” value (3 mg/kg i.p. 30 min before harmaline (20 mg/kg i.p.), +60 min) is reported as 2.0 ± 0.3 score and the “Intensity of tremors … Mean ± S.E.M.” value (3 mg/kg i.p. 30 min before harmaline (20 mg/kg i.p.), +90 min) is reported as 2.1 ± 0.4 score. The “Intensity of tremors … Mean ± S.E.M.” value (3 mg/kg i.p. 30 min before harmaline (20 mg/kg i.p.), +120 min) was 1.8 ± 0.4 score, the “Intensity of tremors … Mean ± S.E.M.” value (10 mg/kg i.p. 30 min before harmaline (20 mg/kg i.p.), +30 min) was 2.0 ± 0.2 score and the “Intensity of tremors … Mean ± S.E.M.” value (10 mg/kg i.p. 30 min before harmaline (20 mg/kg i.p.), +60 min) was 1.1 ± 0.3 score. The “Intensity of tremors … Mean ± S.E.M.” value (10 mg/kg i.p. 30 min before harmaline (20 mg/kg i.p.), +90 min) was 2.2 ± 0.4 score, the “Intensity of tremors … Mean ± S.E.M.” value (10 mg/kg i.p. 30 min before harmaline (20 mg/kg i.p.), +120 min) was 1.3 ± 0.3 score and the “Intensity of tremors … Mean ± S.E.M.” value (30 mg/kg i.p. 30 min before harmaline (20 mg/kg i.p.), +30 min) was 0.9 ± 0.4 score. The “Intensity of tremors … Mean ± S.E.M.” value (30 mg/kg i.p. 30 min before harmaline (20 mg/kg i.p.), +60 min) was 1.1 ± 0.3 score, the “Intensity of tremors … Mean ± S.E.M.” value (30 mg/kg i.p. 30 min before harmaline (20 mg/kg i.p.), +90 min) was 1.4 ± 0.3 score and the “Intensity of tremors … Mean ± S.E.M.” value (30 mg/kg i.p. 30 min before harmaline (20 mg/kg i.p.), +120 min) was 1.2 ± 0.2 score. The “intensity of harmaline-induced tremors (in words)” value (given at 3, 10 and 30 mg/kg) was “reduced the intensity of harmaline-induced tremors in a dose dependent manner”, the “maximal efficacy on tremor intensity compared with propranolol (in words)” value (highest dose tested (30 mg/kg) versus propranolol 20 mg/kg) was “higher than that of the positive reference compound propranolol” and the “intensity of harmaline-induced tremor (in words)” value (rats, summary statement) was “reduced”. The “latency of tremor onset following harmaline injection (in words)” value (rats, summary statement) was “markedly increased” and the “total duration of harmaline-induced tremor (in words)” value (rats, summary statement) was “reduced”.
